Common to all, as to conditions: concentration not given here
Experiment [1] deals with Glutathione S-transferase alpha-1 (Rattus norvegicus) (UniProt P00502). Kind of experiment: Tested for percent inhibition of isolated rat liver cytosolic Glutathione S-transferase 1-1 isoenzyme.
Experiment [2] concerns the target T1, Glutathione S-transferase Mu 2 (Rattus norvegicus) (UniProt P08010).
T1 sequence (whole entry): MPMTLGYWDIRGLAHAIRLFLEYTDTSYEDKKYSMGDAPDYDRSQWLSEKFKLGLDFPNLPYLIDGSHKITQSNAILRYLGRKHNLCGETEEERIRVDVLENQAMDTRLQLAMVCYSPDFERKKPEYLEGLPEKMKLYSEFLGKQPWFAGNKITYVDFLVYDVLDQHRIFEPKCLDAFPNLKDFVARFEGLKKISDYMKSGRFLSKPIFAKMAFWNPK
Kind of experiment: Tested for percent inhibition of isolated rat liver cytosolic Glutathione S-transferase 4-4 isoenzyme.

The target of experiment [3] is Glutathione S-transferase alpha-3 (Rattus norvegicus) (UniProt P04904). Kind of experiment: Tested for percent inhibition of isolated rat liver cytosolic Glutathione S-transferase 2-2 isoenzyme.
Glutathione S-transferase alpha-3 (Rattus norvegicus), sequence (P04904 whole entry, looked up): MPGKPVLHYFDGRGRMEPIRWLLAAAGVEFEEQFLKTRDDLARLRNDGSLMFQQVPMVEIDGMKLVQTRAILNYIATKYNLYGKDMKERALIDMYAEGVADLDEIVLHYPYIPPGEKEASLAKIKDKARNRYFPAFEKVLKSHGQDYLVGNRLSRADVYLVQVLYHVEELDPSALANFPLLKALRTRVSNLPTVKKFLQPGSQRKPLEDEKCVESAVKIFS
For experiment [4], the target named is T2, Glutathione S-transferase Mu 1 (Rattus norvegicus) (UniProt P04905).
T2 sequence (whole entry): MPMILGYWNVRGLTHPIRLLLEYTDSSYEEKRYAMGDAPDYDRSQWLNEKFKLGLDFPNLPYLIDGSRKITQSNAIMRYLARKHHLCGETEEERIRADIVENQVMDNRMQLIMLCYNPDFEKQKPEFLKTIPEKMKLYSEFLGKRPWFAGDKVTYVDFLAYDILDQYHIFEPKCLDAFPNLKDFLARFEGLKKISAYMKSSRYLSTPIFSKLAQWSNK
Kind of experiment: Tested for percent inhibition of isolated rat liver cytosolic Glutathione S-transferase 3-3 isoenzyme.

Glutathione S-transferase alpha-1 (Rattus norvegicus), sequence (P00502 whole entry, looked up): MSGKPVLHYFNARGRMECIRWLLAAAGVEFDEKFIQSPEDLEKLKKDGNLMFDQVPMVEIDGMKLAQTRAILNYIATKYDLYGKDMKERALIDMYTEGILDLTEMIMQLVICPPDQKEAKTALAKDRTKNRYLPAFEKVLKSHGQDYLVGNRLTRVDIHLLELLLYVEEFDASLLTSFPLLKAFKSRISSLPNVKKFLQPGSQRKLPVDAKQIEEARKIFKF

For the compound `CCCCCC(C)SCC(NC(=O)CCC(N)C(=O)O)C(=O)NCC(=O)O` (single isomer, unassigned), the inhibition in experiment [1] is 53%; in experiment [2], 91%; in experiment [3] it was 98%; in experiment [4], 95%.
For the compound `CCCCCC(C)SCC(NC(=O)CCC(N)C(=O)O)C(=O)NCc1nn[nH]n1` (stereo not drawn), the inhibition in experiment [1] worked out at 16%; in experiment [2] it was 59%; in experiment [3], 53%; in experiment [4], 65%.

Source of the values: ChEMBL document CHEMBL1135141, “Inhibition of glutathione S-transferase in rat hepatocytes by a glycine-tetrazole modified S-alkyl-GSH analogue” (Bioorg Med Chem Lett, 2002).
